Legend:
[1] = target: T1, truncated His-MBP-Tev-KLHDC2 (residues 1-363) (Homo sapiens, UniProt Q9Y2U9); assay: KLHDC2 HTRF binding assay; details: 1 nM KLHDC2 (residues 1-363), fluorescein-labeled diglycine peptide probe
T1 construct: truncated His -MBP-Tev-KLHDC2 (residues 1-363) purified from E. coli; made in house; host or cells: E. coli
T1 sequence (Q9Y2U9 1-363): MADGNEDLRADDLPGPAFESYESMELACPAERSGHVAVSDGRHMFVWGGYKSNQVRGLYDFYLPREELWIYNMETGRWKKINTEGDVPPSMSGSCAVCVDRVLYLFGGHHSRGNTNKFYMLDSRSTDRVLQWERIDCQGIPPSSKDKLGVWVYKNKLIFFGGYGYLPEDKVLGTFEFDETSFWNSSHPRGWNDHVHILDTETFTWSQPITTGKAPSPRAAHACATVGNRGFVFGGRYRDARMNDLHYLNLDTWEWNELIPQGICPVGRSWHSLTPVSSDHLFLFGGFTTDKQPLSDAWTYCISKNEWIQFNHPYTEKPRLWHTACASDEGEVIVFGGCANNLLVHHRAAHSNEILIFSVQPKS
Experimental: HTRF binding assays were performed using 1 nM truncated His -MBP-Tev-KLHDC2 (residues 1-363) purified from E. coli, 0.2 nM terbium-anti-His antibody (CisBio), 1 nM fluorescein-labeled diglycine peptide probe, and test compounds in assay buffer consisting of 50 mM HEPES-Na pH 7.5, 100 mM NaCl, 2 mM DTT, 0.005% Tween-20 with a final volume of 20 uL. Compound stocks were dissolved at 10 mM in 100% DMSO and 11 point titration with 3 fold serial dilution was performed in white, opaque 384 well microplates. Reaction plates were incubated at room temperature for 30 minutes. Plates were centrifuged at low rpm for 5 mins, and the ratio of fluorescence intensities were measured at emission wavelengths for fluorescein acceptor (520 nm) and terbium donor (495 nm) on Envision Plate reader. % Inhibition was calculated from the 520/495 ratio generated by the no protein controls for 100% inhibition and DMSO only reactions for 0l % inhibition.

[2] = target: T1, truncated His-MBP-Tev-KLHDC2 (residues 1-363); assay: KLHDC2 FP competition binding assay; details: 15 nM KLHDC2 (residues 1-363), 10 nM fluorescein-labeled diglycine peptide probe, read-out: KLHDC2 binding Human FP: average external IC50

Row | SMILES | IC50 [1] [µM] | IC50 [2] [µM]
1 | CN(CC(C)(C)C(=O)Nc1ccc(=O)n(CC(=O)O)c1)c1cccnc1 [I-36] | > 5 | > 5
2 | COc1cncc(-c2cccc(C(=O)Nc3ccc4c(c3)CC(=O)O4)c2)c1 [I-13] | > 5 | > 5
3 | O=C(O)Cn1cc(NC(=O)[C@@H]2CCCN(c3cccnc3)CC2)ccc1=O [I-29] | 0.5 to 5 | > 5
4 | COc1cc(C(=O)Nc2ccc(=O)n(CC(=O)O)c2)cc(-c2ccccc2)c1 [I-262] | > 5 | > 5
5 | CCCc1ccc(C)c(-c2ccc(=O)n(CC(=O)O)c2)c1 [I-349] | > 5 | > 5
6 | CC(C(=O)O)N1CCCCC1=O (stereo not shown) [I-232] | > 5 | > 5
7 | O=C(O)Cn1cc(N2Cc3ccc(-c4cccnc4)cc3C2=O)ccc1=O [I-81] | > 5 | > 5
8 | Cc1cc(OCc2ccccc2)ccc1-c1ccc(=O)n(CC(=O)O)c1 [I-366] | > 5 | > 5
9 | Cc1c(NC(=O)c2cccc(-c3cccnc3)c2)ccc(=O)n1CC(=O)O [I-70] | > 5 | > 5
10 | CC(C)Cn1cnc2c(C(=O)Nc3ccc(=O)n(CC(=O)O)c3)cccc21 [I-133] | 0.5 to 5 | > 5
11 | O=C(O)Cn1cc(NC(=O)c2ccccc2)ccc1=O [I-382] | > 5 | > 5
12 | N#Cc1ccc(OCC(=O)Nc2ccc(=O)n(CC(=O)O)c2)cc1 [I-270] | > 5 | > 5
13 | O=C(O)Cn1cc(NC(=O)[C@H]2CC[C@H](NC(=O)C3CCCC3)CC2)ccc1=O [I-183] | > 5 | > 5
14 | COc1cc(-c2ccccn2)ccc1C(=O)Nc1ccc(=O)n(CC(=O)O)c1 [I-149] | 0.5 to 5 | 0.5 to 5
15 | COc1c(F)cc(-c2ccc(=O)n(CC(=O)O)c2)cc1F [I-347] | > 5 | > 5
16 | O=C(O)Cn1cc(NC(=O)[C@H]2CCCN(c3cncc([N+](=O)[O-])c3)C2)ccc1=O [I-4] | < 0.05 | < 0.05
17 | COc1cccc2c(N3CCC[C@H](C(=O)Nc4ccc(=O)n(CC(=O)O)c4)C3)cncc12 [I-9] | < 0.05 | < 0.05
18 | O=C(O)Cn1cc(NC(=O)COc2cccc3ncccc23)ccc1=O [I-263] | > 5 | > 5
19 | Cn1ccc(N2CC(C(=O)O)CC2=O)n1 (stereo not shown) [I-233] | > 5 | > 5
20 | CCc1cncc(N2CCC[C@H](C(=O)Nc3ccc(F)c(CC(=O)O)c3)C2)c1 [I-23] | < 0.05 | 0.05 to 0.5
21 | O=C(O)Cn1cc(NC(=O)[C@@H]2CCCN(c3cccnc3)C2)c(Cl)cc1=O [I-82] | 0.5 to 5 | > 5
22 | Cc1cc(O)ccc1-c1ccc(=O)n(CC(=O)O)c1 [I-346] | > 5 | > 5
23 | O=C(O)Cn1cc(NC(=O)[C@@H]2Cc3ccccc3N(c3cccnc3)C2)ccc1=O [I-11] | 0.5 to 5 | 0.5 to 5
24 | O=C(O)Cn1cc(NC(=O)c2cccc(-c3nc4ccccc4s3)c2)ccc1=O [I-138] | 0.05 to 0.5 | 0.5 to 5

Row | SMILES | IC50 [1] [µM] | IC50 [2] [µM]
25 | O=C(O)Cn1cc(-c2ccc3[nH]ncc3c2)ccc1=O [I-387] | > 5 | > 5
26 | O=C(O)Cn1cc(NC(=O)c2cccc(-c3ccccc3)c2)ccc1=O [I-315] | 0.5 to 5 | > 5
27 | O=C(O)Cc1cc(NC(=O)[C@H]2CCCN(c3cccnc3)C2)ccc1F [I-33] | 0.05 to 0.5 | 0.5 to 5
28 | O=C(O)Cn1cc(-c2ccc(C(F)(F)F)cc2)ccc1=O [I-372] | > 5 | > 5
29 | O=C(O)Cn1cc(NC(=O)COc2ccc(C(F)(F)F)cc2)ccc1=O [I-256] | > 5 | > 5
30 | COc1cccc2c(N3CCC[C@H](C(=O)Nc4ccc(Cl)c(CC(=O)O)c4)C3)cncc12 [I-5] | 0.05 to 0.5 | 0.05 to 0.5
31 | O=C(O)Cn1cc(NC(=O)c2cccc(-c3ccncc3)c2)ccc1=O [I-280] | > 5 | > 5
32 | Cc1ccc(C)c(-c2ccc(O)c(CC(=O)O)c2)c1 [I-338] | > 5 | > 5
33 | Nc1ccc(-c2ccc(=O)n(CC(=O)O)c2)cc1 [I-332] | > 5 | > 5
34 | O=C(O)Cn1cc(NC(=O)CCNC(=O)c2ccc3ccccc3c2)ccc1=O [I-190] | > 5 | > 5
35 | O=C(O)Cn1cc(NC(=O)COc2ccc(Cl)cc2)ccc1=O [I-278] | > 5 | > 5
36 | COc1cc(F)cc(-c2ccc(=O)n(CC(=O)O)c2)c1 [I-396] | > 5 | > 5
37 | O=C(O)Cc1cc(-c2ccccc2)ccc1O [I-335] | > 5 | > 5
38 | O=C(O)Cn1cc(NC(=O)c2cccc(-c3cccc(C(F)(F)F)c3)c2)ccc1=O [I-200, 2-(2-oxo-5-(3′-(trifluoromethyl)-[1,1′-biphenyl]-3-carboxamido)pyridin-1 (2H)-yl) acetic acid] | > 5 | > 5
39 | Cc1ccc(C)c(-c2cccn(CC(=O)O)c2=O)c1 [I-390] | > 5 | > 5
40 | Cc1ccc(C(=O)Nc2ccc(=O)n(CC(=O)O)c2)cc1-c1ccccc1 [I-269] | 0.5 to 5 | > 5
41 | O=C(O)Cn1cc(NC(=O)c2cc(-c3cccnc3)ccn2)ccc1=O [I-142] | 0.05 to 0.5 | 0.5 to 5
42 | Cc1ccccc1-c1ccc(O)c(CC(=O)O)c1 [I-336] | > 5 | > 5
43 | O=C(O)Cn1cc(NC(=O)c2cccc(-c3cccc(F)c3)c2)ccc1=O [I-298] | > 5 | > 5
44 | O=C(O)Cn1cc(-c2cncc(/C=C/c3ccccc3)c2)ccc1=O [I-287] | > 5 | > 5
45 | O=C(O)Cn1cc(NC(=O)c2cccc(-c3cccs3)c2)ccc1=O [I-172, 2-(2-oxo-5-(3-(thiophen-2-yl)benzamido)pyridin-1 (2H)-yl) acetic acid] | > 5 | > 5
46 | NCCCCCCc1cccc2c(-c3cccc(C(=O)Nc4ccc(=O)n(CC(=O)O)c4)c3)cncc12 [I-110] | 0.05 to 0.5 | > 5
47 | O=C(O)Cn1ccccc1=O [I-428] | > 5 | > 5
48 | O=C(O)Cn1cc(NC(=O)C2(S(=O)(=O)c3ccc(Cl)cc3)CCCC2)ccc1=O [I-236] | > 5 | > 5

Row | SMILES | IC50 [1] [µM] | IC50 [2] [µM]
49 | CC1CCN(c2cccnc2)CC1C(=O)Nc1ccc(=O)n(CC(=O)O)c1 (stereo not shown) [I-61] | 0.05 to 0.5 | 0.5 to 5
50 | O=C(O)Cn1cc(N2CC[C@@]3(CCN(c4cccnc4)C3)C2=O)ccc1=O [I-2] | 0.5 to 5 | > 5
51 | O=C(O)Cn1cc(NC(=O)[C@@H]2CCCN(c3cccnc3)C2)c(C2CC2)cc1=O [I-58] | 0.5 to 5 | > 5
52 | CS(=O)(=O)c1cccc(-c2ccc(=O)n(CC(=O)O)c2)c1 [I-385] | > 5 | > 5
53 | Cc1cc(C)cc(-c2ccc(=O)n(CC(=O)O)c2)c1 [I-408] | > 5 | > 5
54 | Cc1cc(-c2ccc(=O)n(CC(=O)O)c2)ccc1OCc1ccccc1 [I-323] | > 5 | > 5
55 | CC(C)Cc1cccc(-c2ccc(=O)n(CC(=O)O)c2)c1 [I-344] | > 5 | > 5
56 | NCCCCCCc1cc(C(=O)Nc2ccc(=O)n(CC(=O)O)c2)cc(-c2cccnc2)c1 [I-166] | 0.5 to 5 | 0.5 to 5
57 | CC(C)c1ccc(C(=O)Nc2ccc(=O)n(CC(=O)O)c2)cc1-c1ccccc1 [I-175] | 0.5 to 5 | > 5
58 | O=C(O)Cn1cc(N2CCc3cccc(-c4cccnc4)c3C2=O)ccc1=O [I-74] | > 5 | > 5
59 | NC(=O)Cn1cc(NC(=O)c2cccc(-c3cncc4ccccc34)c2)ccc1=O [I-122] | > 5 | > 5
60 | CCOC(=O)Cn1cc(NC(=O)c2cc(CCCCCCN)cc(-c3cccnc3)c2)ccc1=O [I-157] | > 5 | > 5
61 | O=C(O)Cn1cc(-c2cccc(Cl)c2)ccc1=O [I-375] | > 5 | > 5
62 | O=C(O)Cn1cc(-c2ccc3cn[nH]c3c2)ccc1=O [I-386] | > 5 | > 5
63 | CC(NC(=O)CCC(=O)O)C(=O)c1ccccc1 (stereo not shown) [I-219] | > 5 | > 5
64 | Cc1c(Cl)cccc1OCC(=O)Nc1ccc(=O)n(CC(=O)O)c1 [I-309] | 0.5 to 5 | > 5
65 | O=C(O)Cn1cc(-c2ccc(C(=O)N3CCOCC3)cc2)ccc1=O [I-392] | > 5 | > 5
66 | NCCCCCCn1ccc2c(C(=O)Nc3ccc(=O)n(CC(=O)O)c3)cccc21 [I-137] | > 5 | > 5
67 | Cc1onc(-c2ccc(F)cc2)c1C(=O)Nc1ccc(=O)n(CC(=O)O)c1 [I-254] | > 5 | > 5
68 | Cc1nn(-c2ccc(F)cc2F)c(C)c1CC(=O)Nc1ccc(=O)n(CC(=O)O)c1 [I-246] | > 5 | > 5
69 | CS(=O)(=O)c1cccc(-c2cccc(C(=O)Nc3ccc(=O)n(CC(=O)O)c3)c2)c1 [I-194] | > 5 | > 5
70 | O=C(O)Cn1cc(NC(=O)c2ccnc(-c3ccccc3)c2)ccc1=O [I-260] | > 5 | > 5
71 | Cn1cc(NC(=O)c2cccc(-c3cccnc3)c2)cc(C(=O)O)c1=O [I-31] | > 5 | > 5
